# Source: ChEMBL document CHEMBL1201862, “PubChem BioAssay data set” (2004)
# The source made the active and inactive calls.
# Experiments:
# [1] = biological target: Beta-2 adrenergic receptor (Homo sapiens, UniProt P07550); assay: ADRB2 activation measured by internalization – cell-based, FAP fluorogen, flow cytometry, cherry pick 1, dose response (AID 588763); type: functional
# [2] = microbe, parasite or virus in culture; type: functional; conditions: Mycobacterium tuberculosis
# [3] = biological target: FAD-linked sulfhydryl oxidase ALR (Homo sapiens, UniProt P55789); assay: ALR-catalysed DTT oxidation blockers – biochemical, H2O2 detection, luminescence, cherry-pick, dose response (AID 493248)
# [4] = biological target: 26S proteasome non-ATPase regulatory subunit 14 (Homo sapiens, UniProt O00487); assay: inhibition of proteasome subunit RPN11 – biochemical, fluorescence polarization, uHTS hits, confirmation (AID 602368); type: functional
# [5] = biological target: 72 kDa type IV collagenase (Homo sapiens, UniProt P08253); assay: Dose Response validation of uHTS RPN11 inhibitor hits using a MMP-2 Fluorescence assay.; type: functional
# Prothrombin = Prothrombin (Bos taurus, UniProt P00735); assay: thrombin protease inhibitors – biochemical, fluorescence polarization, uHTS hits, dose response (AID 602369); type: functional
# Cytochrome P450 3A4 = Cytochrome P450 3A4 (Homo sapiens, UniProt P08684); conditions: Potency;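 further: confirmatory qHTS run detecting inhibitors and substrates of CYP3A4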
# [6] = biological target: Voltage-gated inwardly rectifying potassium channel KCNH2 (Homo sapiens, UniProt Q12809); conditions: Potency;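 further: confirmatory quantitative high-throughput screen measuring inhibition of hERG channel activity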
# [7] = luciferase reporter signal suppression in cells – H4 neuroglioma cells, luminescence, dose response (AID 1990); type: functional, cell-based
# [8] = Luminescence Cell-Based Dose Response HTS to Identify Inhibitors of 5'UTR Stem-Loop Driven Prion Protein mRNA Translation in H4 Neuroglioblastoma Cells. [Related pubchem assays: 1827 (Project Summary), 1813 (Primary HTS)]; type: functional
# [9] = alpha-synuclein stem-loop luciferase translation blockers – H4 neuroglioma cells, luminescence, confirmation (AID 1988); type: functional, cell-based
# [10] = biological target: T1, E3 ubiquitin-protein ligase XIAP (Homo sapiens, UniProt P98170); assay: Counter Screen using XIAP-Bir3 for Chemical Antagonists of Bir1/2 domains of IAP-family anti-apoptotic proteins. [Related pubchem assays (depositor defined):AID1018, AID1449, AID1514, AID1638, AID1749, AID1750, AID488957, AID488963]
# [11] = biological target: T1, E3 ubiquitin-protein ligase XIAP; assay: small molecules displacing peptide from XIAP – biochemical, IAP family, fluorescence polarization (AID 1018); type: functional
# [12] = biological target: T2, Microphthalmia-associated transcription factor (Homo sapiens, UniProt O75030); assay: reducers of TRPM1 reporter luminescence, concentration series – cell-based, SK-MEL-5, cherry-picked, set 3, MITF inhibitor project, dose response (AID 493073); type: functional;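 further: SK-MEL-5 melanoma cells with luciferase driven by the MITF target TRPM1 promoter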
# T2 sequence (O75030 whole entry): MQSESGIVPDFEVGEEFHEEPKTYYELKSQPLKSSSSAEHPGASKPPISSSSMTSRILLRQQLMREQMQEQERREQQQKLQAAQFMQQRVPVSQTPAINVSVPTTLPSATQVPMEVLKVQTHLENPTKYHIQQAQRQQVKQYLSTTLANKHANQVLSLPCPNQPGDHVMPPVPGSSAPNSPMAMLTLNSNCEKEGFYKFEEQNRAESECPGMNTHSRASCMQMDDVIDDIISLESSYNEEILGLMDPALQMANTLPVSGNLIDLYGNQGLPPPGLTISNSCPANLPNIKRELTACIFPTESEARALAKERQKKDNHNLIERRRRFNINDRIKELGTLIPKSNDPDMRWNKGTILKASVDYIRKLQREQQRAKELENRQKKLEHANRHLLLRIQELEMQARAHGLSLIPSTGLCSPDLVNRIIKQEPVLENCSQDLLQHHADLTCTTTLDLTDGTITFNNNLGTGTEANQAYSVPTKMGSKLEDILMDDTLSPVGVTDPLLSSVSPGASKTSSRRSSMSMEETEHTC
# [13] = HEK-293T cell viability reduction – luminescence, B-cell screen hits, cytotoxicity control for BCR NF-kB inhibitor project, dose response (AID 489021); type: functional, cell-based;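 further: HEK-293T cells carrying an NF-kB luciferase reporter; cells exposed to compound for about 14 hours before viability readout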
# HEK293 = assay: HEK293T cell viability loss, resazurin readout – resazurin fluorescence, cytotoxicity control for NF-kB activator project, SAR follow-up (AID 493251); type: functional, cell-based; conditions: Homo sapiens
# [14] = biological target: Delta-type opioid receptor (Homo sapiens, UniProt P41143); assay: Counterscreen for agonists of heterodimerization of the mu 1 (OPRM1) and delta 1 (OPRD1) opioid receptors: Luminescence-based cell-based high throughput dose response assay to identify agonists of OPRD1 homodimerization. [Related pubchem assays (depositor defined):AID504326, AID504355, AID504692, AID504904, AID504905]; type: functional
# Mu-type opioid receptor = Mu-type opioid receptor (Homo sapiens, UniProt P35372); assay: Counterscreen for agonists of heterodimerization of the mu 1 (OPRM1) and delta 1 (OPRD1) opioid receptors: Luminescence-based cell-based high throughput dose response assay to identify agonists of OPRM1 homodimerization.; type: functional;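 further: U2OS cells expressing OPRM1 and beta-arrestin as split beta-galactosidase partners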
# [15] = biological target: 5-hydroxytryptamine receptor 5A (Homo sapiens, UniProt P47898); assay: Counterscreen for agonists of OPRM1-OPRD1 heterodimerization: luminescence-based cell-based high throughput dose response assay to identify agonists of 5-hydroxytryptamine (serotonin) 5A receptor (HTR5A). [Related pubchem assays (depositor defined):AID504326, AID504355, AID504692, AID504904, AID504905]; type: functional
# [16] = biological target: Carboxy-terminal domain RNA polymerase II polypeptide A small phosphatase 1 (Homo sapiens, UniProt Q9GZU7); assay: CTDSP1 inhibitors, concentration-response, biochemical, absorbance readout, ultra-high-throughput screen actives (AID 540297); type: functional
# [17] = NIH-3T3 fibroblast cytotoxicity, dose response, cytotoxicity control, cell-based, fluorescence, Alamar Blue, secondary assay (AID 2327); type: functional;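 further: NIH-3T3 mouse fibroblasts cultured with fluconazole at 8 µg/mL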
# [18] = decrease of insulin promoter-GFP reporter – imaging, high-content screening, mouse beta cells (AID 1628); type: functional; conditions: MIN6
# [19] = MIN6 cell viability loss – mouse insulinoma, cytotoxicity control, dose response (AID 2122); type: functional;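 further: confirmatory high-throughput counterscreen run to flag cytotoxic compounds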
# [20] = fluconazole-exposed Candida albicans growth modulators – fluorescence, retest, confirmation (AID 2467); type: functional, cell-based
# [21] = Trypanosoma cruzi growth suppression in host cells – NIH3T3 host cells, beta-gal luminescence, confirmation (AID 2044); type: functional, cell-based;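 further: intracellular parasites grown in NIH/3T3 mouse fibroblasts as host cells; luminescent beta-galactosidase reporter signal from transgenic T. cruzi replicating inside host cells; inhibitors lower the luminescence signal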
# [22] = NIH3T3 cell viability loss – ATP luminescence, mouse fibroblasts, counter-screen, dose response (AID 2010); type: functional, cell-based;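 further: cells exposed to compound for about 90 hours before reading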
# [23] = biological target: T3, Short transient receptor potential channel 4 (Mus musculus, UniProt Q9QUQ5); assay: calcium entry via TRPC4 opening agents – cell-based, HEK293 TRPC4/mu-opioid, Fluo-4 calcium, dose response (AID 434937); type: functional
# T3 sequence (Q9QUQ5 whole entry): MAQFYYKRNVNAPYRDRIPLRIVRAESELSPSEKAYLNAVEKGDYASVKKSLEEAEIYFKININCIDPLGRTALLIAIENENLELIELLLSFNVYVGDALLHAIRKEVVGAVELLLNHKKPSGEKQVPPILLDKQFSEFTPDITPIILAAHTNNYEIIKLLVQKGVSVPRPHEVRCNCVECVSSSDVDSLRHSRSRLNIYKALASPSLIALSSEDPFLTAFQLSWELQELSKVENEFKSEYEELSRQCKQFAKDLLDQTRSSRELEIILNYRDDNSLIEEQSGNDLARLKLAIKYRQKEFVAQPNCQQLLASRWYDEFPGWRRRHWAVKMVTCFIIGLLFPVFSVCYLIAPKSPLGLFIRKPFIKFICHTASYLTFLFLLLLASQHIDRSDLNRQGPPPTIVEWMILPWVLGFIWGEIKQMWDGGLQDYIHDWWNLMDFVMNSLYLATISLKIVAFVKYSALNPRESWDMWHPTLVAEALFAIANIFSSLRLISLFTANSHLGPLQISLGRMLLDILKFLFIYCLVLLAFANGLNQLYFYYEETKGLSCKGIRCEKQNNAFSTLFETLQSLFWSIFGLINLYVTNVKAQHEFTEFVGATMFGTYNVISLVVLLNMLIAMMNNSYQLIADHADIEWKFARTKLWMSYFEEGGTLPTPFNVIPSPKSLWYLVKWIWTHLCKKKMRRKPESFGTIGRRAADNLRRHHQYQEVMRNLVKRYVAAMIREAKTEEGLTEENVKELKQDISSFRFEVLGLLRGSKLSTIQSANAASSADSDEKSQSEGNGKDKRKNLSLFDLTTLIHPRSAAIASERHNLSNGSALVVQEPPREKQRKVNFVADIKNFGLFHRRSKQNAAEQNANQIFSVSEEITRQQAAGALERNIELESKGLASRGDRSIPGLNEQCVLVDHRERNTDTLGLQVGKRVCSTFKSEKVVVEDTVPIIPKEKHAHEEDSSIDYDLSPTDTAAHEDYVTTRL
# Troponin, cardiac muscle = Troponin, cardiac muscle (Homo sapiens, UniProt P19429+P45379+P63316); assay: Fluorescence-based biochemical high throughput dose response assay for activators of the calcium sensitivity of cardiac Regulated Thin Filaments (RTF). [Related pubchem assays (depositor defined):AID493008, AID493018, AID504382, AID504383]; type: protein-complex assay
# Cysteine protease ATG4B = Cysteine protease ATG4B (Homo sapiens, UniProt Q9Y4P1); type: functional;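 further: Fluorescence-based dose-response confirmation assay measuring inhibition of ATG4B activity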
# Phospholipase A2 = Phospholipase A2 (Homo sapiens, UniProt P04054); type: functional;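 further: confirmatory dose-response counterscreen on phospholipase A2, testing hits that came from an ultra-high-throughput screen for ATG4B inhibitors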
# CHO = CHO cell viability loss, potency – luminescence, cytotoxicity control for TLR9-MyD88 binding inhibitor project, dose response (AID 588339); type: functional, cell-based, hamster; conditions: Cricetulus griseus;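 further: CHO cells stably coexpressing TLR9 and MyD88 fusions from primary screen; compound exposure lasted 48 hours before viability readout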
# [24] = biological target: Heat shock protein HSP 90-alpha (Homo sapiens, UniProt P07900); type: functional, organism-based
# Beta Lactamase = Beta Lactamase (Pseudomonas aeruginosa, UniProt Q932Y6); assay: BLA reporter interference, concentration series – BLA reporter cells, FRET fluorescence, artefact control for TLR9-MyD88 binding inhibitor project, dose response (AID 588341); type: cell-based;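 further: cell based assay in CHO-K1 cells stably expressing beta-lactamase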
# [25] = biological target: Photoreceptor-specific nuclear receptor (Homo sapiens, UniProt Q9Y5X4); type: functional, cell-based;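 further: CHO-S cells with Gal4-NCOR and VP16-NR2E3 two-hybrid luciferase reporter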
# Phospholipase A2, sequence (P04054 whole entry, the tested form may be a part): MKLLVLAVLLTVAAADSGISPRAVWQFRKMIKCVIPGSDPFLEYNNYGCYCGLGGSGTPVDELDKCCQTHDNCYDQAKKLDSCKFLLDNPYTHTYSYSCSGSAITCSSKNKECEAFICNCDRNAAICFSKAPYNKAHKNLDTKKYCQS
# Mu-type opioid receptor, sequence (P35372 whole entry): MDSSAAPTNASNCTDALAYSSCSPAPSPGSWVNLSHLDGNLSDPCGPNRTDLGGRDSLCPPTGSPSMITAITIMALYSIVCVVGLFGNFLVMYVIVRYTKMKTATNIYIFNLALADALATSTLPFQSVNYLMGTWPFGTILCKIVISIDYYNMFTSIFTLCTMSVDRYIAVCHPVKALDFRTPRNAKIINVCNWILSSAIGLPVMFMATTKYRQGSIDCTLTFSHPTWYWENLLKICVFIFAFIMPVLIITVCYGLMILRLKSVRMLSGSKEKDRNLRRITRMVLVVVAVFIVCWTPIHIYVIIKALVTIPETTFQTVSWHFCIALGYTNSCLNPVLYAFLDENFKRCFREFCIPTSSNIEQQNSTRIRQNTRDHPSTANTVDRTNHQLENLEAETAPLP
# 5-hydroxytryptamine receptor 5A, sequence (P47898 whole entry, the tested form may be a part): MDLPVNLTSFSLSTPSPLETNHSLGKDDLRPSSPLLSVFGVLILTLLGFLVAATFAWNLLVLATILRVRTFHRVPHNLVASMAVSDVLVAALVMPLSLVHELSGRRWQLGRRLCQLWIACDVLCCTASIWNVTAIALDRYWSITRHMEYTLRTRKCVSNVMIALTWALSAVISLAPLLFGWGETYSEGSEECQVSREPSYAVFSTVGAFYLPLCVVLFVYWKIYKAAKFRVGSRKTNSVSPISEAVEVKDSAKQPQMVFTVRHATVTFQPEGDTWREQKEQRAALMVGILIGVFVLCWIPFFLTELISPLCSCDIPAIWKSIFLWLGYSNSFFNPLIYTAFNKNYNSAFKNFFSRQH
# T1 sequence (P98170 whole entry): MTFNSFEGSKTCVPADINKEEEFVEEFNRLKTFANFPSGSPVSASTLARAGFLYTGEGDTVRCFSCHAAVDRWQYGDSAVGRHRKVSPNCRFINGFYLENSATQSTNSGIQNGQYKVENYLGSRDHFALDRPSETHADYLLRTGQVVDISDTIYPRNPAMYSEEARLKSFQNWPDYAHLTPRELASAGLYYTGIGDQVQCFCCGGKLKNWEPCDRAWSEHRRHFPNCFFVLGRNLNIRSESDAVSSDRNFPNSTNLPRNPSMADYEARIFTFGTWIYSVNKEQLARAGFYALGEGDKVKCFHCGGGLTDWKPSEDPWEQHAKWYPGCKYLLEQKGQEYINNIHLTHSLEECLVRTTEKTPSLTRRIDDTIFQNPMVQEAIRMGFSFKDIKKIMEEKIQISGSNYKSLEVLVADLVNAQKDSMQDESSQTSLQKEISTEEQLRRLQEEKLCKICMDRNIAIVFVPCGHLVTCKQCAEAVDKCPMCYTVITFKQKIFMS
# Delta-type opioid receptor, sequence (P41143 whole entry): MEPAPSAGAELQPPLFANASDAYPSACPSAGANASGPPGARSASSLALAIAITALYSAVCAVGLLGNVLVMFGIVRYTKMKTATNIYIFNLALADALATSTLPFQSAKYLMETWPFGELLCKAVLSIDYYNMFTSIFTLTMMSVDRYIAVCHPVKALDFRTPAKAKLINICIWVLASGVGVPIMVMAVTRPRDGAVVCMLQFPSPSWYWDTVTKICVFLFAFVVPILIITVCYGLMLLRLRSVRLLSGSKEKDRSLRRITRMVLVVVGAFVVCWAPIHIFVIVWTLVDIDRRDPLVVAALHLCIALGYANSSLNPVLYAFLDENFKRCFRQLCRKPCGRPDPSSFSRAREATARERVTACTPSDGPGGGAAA
# Cysteine protease ATG4B, sequence (Q9Y4P1 whole entry): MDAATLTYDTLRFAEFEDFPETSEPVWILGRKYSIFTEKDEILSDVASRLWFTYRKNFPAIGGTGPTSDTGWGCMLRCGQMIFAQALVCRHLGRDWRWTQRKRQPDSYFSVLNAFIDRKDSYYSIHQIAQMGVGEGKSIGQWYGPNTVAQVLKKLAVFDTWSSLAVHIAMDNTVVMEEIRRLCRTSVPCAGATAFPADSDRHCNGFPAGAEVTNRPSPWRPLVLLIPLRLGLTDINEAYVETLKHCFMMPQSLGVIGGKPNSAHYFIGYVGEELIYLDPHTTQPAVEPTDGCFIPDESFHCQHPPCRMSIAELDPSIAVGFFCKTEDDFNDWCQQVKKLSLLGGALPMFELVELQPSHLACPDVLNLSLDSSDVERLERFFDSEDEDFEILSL
# Voltage-gated inwardly rectifying potassium channel KCNH2, sequence (Q12809 whole entry): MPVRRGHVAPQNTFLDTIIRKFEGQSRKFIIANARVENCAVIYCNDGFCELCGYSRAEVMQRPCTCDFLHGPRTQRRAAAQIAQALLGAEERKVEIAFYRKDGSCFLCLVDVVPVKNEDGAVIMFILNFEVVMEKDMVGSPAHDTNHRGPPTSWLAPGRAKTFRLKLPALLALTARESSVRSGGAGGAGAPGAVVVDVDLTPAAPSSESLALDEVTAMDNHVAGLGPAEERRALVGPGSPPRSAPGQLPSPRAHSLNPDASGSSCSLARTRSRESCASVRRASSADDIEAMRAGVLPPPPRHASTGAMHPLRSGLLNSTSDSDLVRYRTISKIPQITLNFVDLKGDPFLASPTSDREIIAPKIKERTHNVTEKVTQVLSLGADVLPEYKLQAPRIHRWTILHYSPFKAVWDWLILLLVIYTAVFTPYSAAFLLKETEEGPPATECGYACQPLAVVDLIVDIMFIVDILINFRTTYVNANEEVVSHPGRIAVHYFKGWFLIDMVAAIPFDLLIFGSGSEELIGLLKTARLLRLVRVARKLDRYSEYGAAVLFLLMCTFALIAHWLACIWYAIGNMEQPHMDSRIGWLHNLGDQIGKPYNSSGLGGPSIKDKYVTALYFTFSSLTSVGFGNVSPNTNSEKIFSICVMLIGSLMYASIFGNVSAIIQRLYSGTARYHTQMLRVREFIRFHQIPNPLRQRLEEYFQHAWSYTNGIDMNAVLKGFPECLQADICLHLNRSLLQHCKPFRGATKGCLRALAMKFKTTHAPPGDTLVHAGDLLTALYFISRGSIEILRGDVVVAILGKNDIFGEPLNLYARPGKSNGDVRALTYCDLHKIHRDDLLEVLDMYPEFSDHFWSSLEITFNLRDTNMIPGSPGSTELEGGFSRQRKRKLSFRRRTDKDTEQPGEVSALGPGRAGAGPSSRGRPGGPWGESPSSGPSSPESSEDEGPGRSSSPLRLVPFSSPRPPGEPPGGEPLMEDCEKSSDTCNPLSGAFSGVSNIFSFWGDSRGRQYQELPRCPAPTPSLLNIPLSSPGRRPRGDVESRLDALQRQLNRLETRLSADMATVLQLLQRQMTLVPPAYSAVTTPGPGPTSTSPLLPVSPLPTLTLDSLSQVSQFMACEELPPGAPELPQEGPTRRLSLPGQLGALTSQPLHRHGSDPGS
# Carboxy-terminal domain RNA polymerase II polypeptide A small phosphatase 1, sequence (Q9GZU7 whole entry, the tested form may be a part): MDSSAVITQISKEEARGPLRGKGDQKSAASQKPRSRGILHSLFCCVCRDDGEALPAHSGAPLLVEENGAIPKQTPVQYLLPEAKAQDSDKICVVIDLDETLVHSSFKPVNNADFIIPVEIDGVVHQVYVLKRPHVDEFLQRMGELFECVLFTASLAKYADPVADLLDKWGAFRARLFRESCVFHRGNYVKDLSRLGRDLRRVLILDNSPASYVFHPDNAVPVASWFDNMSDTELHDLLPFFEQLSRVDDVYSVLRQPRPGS
# 26S proteasome non-ATPase regulatory subunit 14, sequence (O00487 whole entry): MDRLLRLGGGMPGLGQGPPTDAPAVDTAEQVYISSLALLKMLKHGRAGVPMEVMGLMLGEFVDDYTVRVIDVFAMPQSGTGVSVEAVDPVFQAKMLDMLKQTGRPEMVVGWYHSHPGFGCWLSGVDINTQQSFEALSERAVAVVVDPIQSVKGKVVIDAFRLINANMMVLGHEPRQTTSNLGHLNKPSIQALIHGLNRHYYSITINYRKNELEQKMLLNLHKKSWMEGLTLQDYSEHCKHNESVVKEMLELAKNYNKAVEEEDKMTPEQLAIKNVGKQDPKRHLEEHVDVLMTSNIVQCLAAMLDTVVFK
# Beta Lactamase, sequence (Q932Y6 whole entry, the tested form may be a part): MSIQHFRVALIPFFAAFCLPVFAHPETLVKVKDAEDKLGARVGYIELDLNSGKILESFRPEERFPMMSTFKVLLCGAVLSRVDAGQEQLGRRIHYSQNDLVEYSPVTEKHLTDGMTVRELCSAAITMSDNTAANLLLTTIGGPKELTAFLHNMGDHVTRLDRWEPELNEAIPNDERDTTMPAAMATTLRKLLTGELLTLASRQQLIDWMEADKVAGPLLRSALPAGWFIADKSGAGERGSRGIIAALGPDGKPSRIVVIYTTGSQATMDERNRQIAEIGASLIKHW
# Beta-2 adrenergic receptor, sequence (P07550 whole entry): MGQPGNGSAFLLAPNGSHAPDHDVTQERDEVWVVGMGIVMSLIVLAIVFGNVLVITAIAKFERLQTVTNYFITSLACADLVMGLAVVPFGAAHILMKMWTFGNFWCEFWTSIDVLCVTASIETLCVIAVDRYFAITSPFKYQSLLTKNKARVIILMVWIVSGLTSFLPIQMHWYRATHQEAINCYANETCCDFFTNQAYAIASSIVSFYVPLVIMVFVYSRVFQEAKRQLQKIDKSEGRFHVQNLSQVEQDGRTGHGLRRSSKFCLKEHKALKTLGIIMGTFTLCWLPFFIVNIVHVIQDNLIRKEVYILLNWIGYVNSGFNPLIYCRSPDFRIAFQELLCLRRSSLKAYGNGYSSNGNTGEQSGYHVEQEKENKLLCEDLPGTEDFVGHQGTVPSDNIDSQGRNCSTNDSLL
# FAD-linked sulfhydryl oxidase ALR, sequence (P55789 whole entry): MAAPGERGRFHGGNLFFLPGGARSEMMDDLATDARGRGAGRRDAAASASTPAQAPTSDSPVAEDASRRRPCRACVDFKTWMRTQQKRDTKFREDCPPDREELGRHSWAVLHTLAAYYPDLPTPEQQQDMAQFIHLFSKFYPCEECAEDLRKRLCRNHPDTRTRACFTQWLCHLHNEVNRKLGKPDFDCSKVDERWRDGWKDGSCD
compound,measurement,setting,value
COc1ccc(CNC(=O)CCCCCNc2nc(S)nc3ccccc23)cc1,EC50,[1],0.0255 µM (active)
CCN(CC)c1ccc(N)cc1,CC50,[2],27.9 µM (active)
same,AC50,[3],6.78 µM (active)
same,IC50,[4],4.69 µM (active)
same,IC50,[5],> 100 µM (inactive)
same,IC50,Prothrombin,5.11 µM (active)
same,AC50,Cytochrome P450 3A4,25.1 µM (inconclusive)
same,AC50,[6],10 µM (inconclusive)
CCOc1ccc(-c2noc(CCC(=O)O)n2)cc1,EC50,[7],6.28 µM (active)
same,EC50,[8],15 µM (active)
same,EC50,[9],7.97 µM (active)
same,IC50,[10],> 100 µM (inactive)
same,IC50,[11],> 100 µM (not active)
same,AC50,[12],2.61 µM (active)
same,IC50,[13],> 80 µM (inactive)
same,IC50,HEK293,> 80 µM (inactive)
COc1ccc(-n2c3c(cc(C(=O)NNc4ccccc4C)c2=O)C(=O)CC(C)(C)C3)cc1,EC50,[14],> 92.5 µM (inactive)
same,EC50,Mu-type opioid receptor,14.5 µM (inactive)
same,EC50,[15],> 92.5 µM (inactive)
Cc1cnc(C(=O)OCc2nc(O)c3sccc3n2)cn1,IC50,[16],7.9 µM (active)
CCC(C)OC(=O)C[N+](C)(C)CCOC1CC2CCC1(C)C2(C)C (stereo not given),EC50,[17],> 150 µM (inconclusive)
same,IC50,[18],0.418 µM (active)
same,IC50,[19],< 0.25 µM (active)
same,EC50,[20],4.36 µM (active)
same,EC50,[21],0.341 µM (active)
same,EC50,[22],> 60 µM (not active)
OCC1(CC2CCCCO2)CCN(Cc2ccccc2-c2ccco2)CC1 (stereo not given),EC50,[23],0.668 µM (active)
same,EC50,[14],> 92.4 µM (inactive)
same,EC50,Mu-type opioid receptor,> 92.4 µM (inactive)
same,EC50,[15],> 92.4 µM (inactive)
Fc1ccc(CN=C(S)NCc2ccc(F)cc2)cc1,EC50,"Troponin, cardiac muscle",> 71.5 µM (inactive)
same,IC50,Cysteine protease ATG4B,12.3 µM (active)
same,IC50,Phospholipase A2,9.33 µM (active)
Cc1sc(NC(=O)c2ccccc2)c(C(=O)c2ccccc2)c1C,IC50,Cysteine protease ATG4B,15.3 µM (active)
same,IC50,Phospholipase A2,9.18 µM (active)
O=c1c(Br)ccc(Br)cc1Br,IC50,CHO,0.558 µM (active)
same,AC50,[24],0.438 µM (active)
same,IC50,Beta Lactamase,6.14 µM (active)
same,IC50,[25],3.72 µM (active)
CCC(C)(C)C(=O)O [DIMEBUTIC ACID],AC50,[6],12.6 µM (inconclusive)
